Test results published in ChEMBL document CHEMBL1201862, “PubChem BioAssay data set” (2004).
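How tested: cells in 96-well plates exposed to compound for 48 hours at five concentrations. GI50: concentration for 50% inhibition of growth.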 Active and inactive are the calls of the source. Rule as the data show it: active = GI50 up to about 1.1 µM and inactive = higher.

Key:
Test in all cases: inhibition of tumour cell growth, NCI panel, 48 h
CAKI-1 = system: CAKI-1
COLO 205 = system: COLO 205
DU-145 = system: DU-145
EKVX = system: EKVX
HCC 2998 = system: HCC 2998
HCT-116 = system: HCT-116
HOP-92 = system: HOP-92
KM12 = system: KM12
M14 = system: M14
MDA-N = system: MDA-N
MOLT-4 = system: MOLT-4
Malme-3M = system: Malme-3M
NCI-H226 = system: NCI-H226
NCI-H23 = system: NCI-H23
NCI-H460 = system: NCI-H460
OVCAR-8 = system: OVCAR-8
SF-295 = system: SF-295
SK-MEL-28 = system: SK-MEL-28
SNB-19 = system: SNB-19
UACC-257 = system: UACC-257

Row | SMILES | GI50 (CAKI-1) | GI50 (COLO 205) | GI50 (DU-145) | GI50 (EKVX) | GI50 (HCC 2998) | GI50 (HCT-116) | GI50 (HOP-92) | GI50 (KM12) | GI50 (M14) | GI50 (MDA-N) | GI50 (MOLT-4) | GI50 (Malme-3M) | GI50 (NCI-H226) | GI50 (NCI-H23) | GI50 (NCI-H460) | GI50 (OVCAR-8) | GI50 (SF-295) | GI50 (SK-MEL-28) | GI50 (SNB-19) | GI50 (UACC-257)
1 | COc1ccc(/C=C2\C[C@H]3[C@@H]4CCC5=CC(=O)CC[C@]5(C)[C@H]4CC[C@]3(C)C2=O)cc1OC | 6.97 µM (inactive) | 3.1 µM (inactive) | 41.2 µM (inactive) | 8.41 µM (inactive) | 21.8 µM (inactive) | 8.05 µM (inactive) | 5.27 µM (inactive) | 0.279 µM (active) | 14.9 µM (inactive) | 5.94 µM (inactive) | 3.44 µM (inactive) | 8.65 µM (inactive) | 11.1 µM (inactive) | 17.6 µM (inactive) | 6.93 µM (inactive) | 2.6 µM (inactive) | 0.0635 µM (active) | 40.7 µM (inactive) | 44.6 µM (inactive) | 4.6 µM (inactive)
2 | O=[N+]([O-])c1ccc2c(/N=N/c3c(O)ccc4ccccc34)c(O)cc(S(=O)(=O)O)c2c1 | 4.86 µM (inactive) | 18.3 µM (inactive) | 36.1 µM (inactive) | > 50 µM (inactive) | 63.1 µM (inactive) | 14.4 µM (inactive) | 16.6 µM (inactive) | 24.2 µM (inactive) | 4.07 µM (inactive) | 15.5 µM (inactive) | 1.39 µM (inactive) | 4.06 µM (inactive) | 17.5 µM (inactive) | 20.9 µM (inactive) | 44.4 µM (inactive) | 5.28 µM (inactive) | 13.3 µM (inactive) | 10.1 µM (inactive) | 15 µM (inactive) | 20 µM (inactive)
3 | COc1cccc([C@H]2C/C(=N\NC(=O)C(=O)N[C@@H](C)c3ccccc3)c3ccccc3N2)c1 | 0.0354 µM (active) | 0.0167 µM (active) | 0.0258 µM (active) | 0.0927 µM (active) | 0.017 µM (active) | 0.0209 µM (active) | 7.5 µM (inactive) | < 0.01 µM (active) | 0.0249 µM (active) | < 0.01 µM (active) | > 10 µM (inactive) | > 10 µM (inactive) | 0.0314 µM (active) | > 10 µM (inactive) | > 10 µM (inactive) | 6.41 µM (inactive) | < 0.01 µM (active) | 0.0673 µM (active) | 6.52 µM (inactive) | 0.0361 µM (active)
4 | O=C(O)c1cc2ccccc2c(/N=N\c2cc(C(F)(F)F)ccc2Cl)c1O | 94.8 µM (inactive) | 39.7 µM (inactive) | 74.1 µM (inactive) | 70 µM (inactive) | > 100 µM (inactive) | 53.8 µM (inactive) | 53.8 µM (inactive) | 23.8 µM (inactive) | > 100 µM (inactive) | > 100 µM (inactive) | 27.4 µM (inactive) | 37.4 µM (inactive) | > 100 µM (inactive) | 56.5 µM (inactive) | 38.5 µM (inactive) | 60.8 µM (inactive) | 47.6 µM (inactive) | 83 µM (inactive) | 1.17 µM (inactive) | 67.6 µM (inactive)
5 | O=C1NC(=S)N(c2cccc3ccccc23)C(=O)/C1=C/c1c[nH]c2ccccc12 | 2.54 µM (inactive) | 1.84 µM (inactive) | 1.8 µM (inactive) | 2.06 µM (inactive) | 1.87 µM (inactive) | 2.01 µM (inactive) | 2.13 µM (inactive) | 2.32 µM (inactive) | 1.84 µM (inactive) | 2.1 µM (inactive) | 1.87 µM (inactive) | 2.23 µM (inactive) | 2.42 µM (inactive) | 1.81 µM (inactive) | 2.36 µM (inactive) | 2.39 µM (inactive) | 3.07 µM (inactive) | 2.26 µM (inactive) | 3.08 µM (inactive) | 2.31 µM (inactive)
6 | Cc1ccc(C)c2c1CC(Cc1ccccc1C(=O)O)C2=O (stereo not given) | > 100 µM (inactive) | > 100 µM (inactive) | > 100 µM (inactive) | > 100 µM (inactive) | > 100 µM (inactive) | > 100 µM (inactive) | > 100 µM (inactive) | > 100 µM (inactive) | > 100 µM (inactive) | > 100 µM (inactive) | > 100 µM (inactive) | > 100 µM (inactive) | > 100 µM (inactive) | > 100 µM (inactive) | > 100 µM (inactive) | > 100 µM (inactive) | > 100 µM (inactive) | > 100 µM (inactive) | > 100 µM (inactive) | > 100 µM (inactive)
7 | O=C(NC(CO)Cc1ccc(Oc2cc(CC(CO)NC(=O)OCc3ccccc3)ccc2OC(=O)OCc2ccccc2)cc1)OCc1ccccc1 (stereo not given) | 26 µM (inactive) | 18.2 µM (inactive) | 21 µM (inactive) | 14.5 µM (inactive) | 16.1 µM (inactive) | 16.7 µM (inactive) | 19.5 µM (inactive) | 17.1 µM (inactive) | 18.2 µM (inactive) | 16.6 µM (inactive) | 3.32 µM (inactive) | 16.7 µM (inactive) | 16.9 µM (inactive) | 16.1 µM (inactive) | 17.8 µM (inactive) | 15.4 µM (inactive) | 15.9 µM (inactive) | 17.9 µM (inactive) | 22.4 µM (inactive) | 15 µM (inactive)
8 | CCOC(=O)/C=C(\C(=O)OCC)n1cc(Cl)c(=O)n(CC(=O)OCC)c1=O | 2.25 µM (inactive) | 0.697 µM (active) | 17 µM (inactive) | 14.3 µM (inactive) | 21.1 µM (inactive) | 2.19 µM (inactive) | 1.85 µM (inactive) | 18.2 µM (inactive) | 3.4 µM (inactive) | 11.3 µM (inactive) | 1.91 µM (inactive) | 1.57 µM (inactive) | 16.4 µM (inactive) | 14.7 µM (inactive) | 23.4 µM (inactive) | 2.19 µM (inactive) | > 43.5 µM (inactive) | 16.7 µM (inactive) | 18.8 µM (inactive) | 2.96 µM (inactive)
9 | O=C(O)COc1cc(-c2ccccc2)nc2ccccc12 | > 100 µM (inactive) | 51.1 µM (inactive) | > 100 µM (inactive) | > 100 µM (inactive) | > 100 µM (inactive) | 36.8 µM (inactive) | > 100 µM (inactive) | 50.1 µM (inactive) | 71 µM (inactive) | 26.1 µM (inactive) | 47.2 µM (inactive) | > 100 µM (inactive) | > 100 µM (inactive) | 77.6 µM (inactive) | 48 µM (inactive) | > 100 µM (inactive) | 44.4 µM (inactive) | 73.3 µM (inactive) | 98.4 µM (inactive) | > 100 µM (inactive)
10 | Cc1ccc(/C=N/NS(=O)(=O)c2ccc(/C=C3\NC(=O)NC3=O)cc2)cc1 | > 100 µM (inactive) | > 100 µM (inactive) | > 100 µM (inactive) | 64.9 µM (inactive) | > 100 µM (inactive) | > 100 µM (inactive) | 53.7 µM (inactive) | > 100 µM (inactive) | > 100 µM (inactive) | > 100 µM (inactive) | > 100 µM (inactive) | > 100 µM (inactive) | > 100 µM (inactive) | > 100 µM (inactive) | > 100 µM (inactive) | 37.8 µM (inactive) | 46.7 µM (inactive) | > 100 µM (inactive) | 31 µM (inactive) | > 100 µM (inactive)
11 | CCC1(O)CC(OC2CC(N(C)C)C(OC3CC(O)C(OC4CCC(=O)C(C)O4)C(C)O3)C(C)O2)c2c(O)c3c(c(O)c2C1C(=O)OC)C(=O)c1cccc(O)c1C3=O (stereo not given) | 0.000267 µM (active) | 0.00327 µM (active) | 0.00689 µM (active) | 0.012 µM (active) | 0.0172 µM (active) | 0.000396 µM (active) | 0.0344 µM (active) | 0.00344 µM (active) | 0.01 µM (active) | 0.00482 µM (active) | 0.00154 µM (active) | 0.0125 µM (active) | 0.0126 µM (active) | 0.00589 µM (active) | 0.000434 µM (active) | 0.00174 µM (active) | 0.00219 µM (active) | 0.00995 µM (active) | 0.00457 µM (active) | 0.0059 µM (active)
12 | O=C1C[C@H](c2ccccc2)O[C@@H](c2ccccc2)C1 | > 100 µM (inactive) | > 100 µM (inactive) | > 100 µM (inactive) | > 100 µM (inactive) | > 100 µM (inactive) | > 100 µM (inactive) | > 100 µM (inactive) | > 100 µM (inactive) | > 100 µM (inactive) | > 100 µM (inactive) | 58.1 µM (inactive) | > 100 µM (inactive) | > 100 µM (inactive) | > 100 µM (inactive) | > 100 µM (inactive) | > 100 µM (inactive) | > 100 µM (inactive) | > 100 µM (inactive) | > 100 µM (inactive) | > 100 µM (inactive)
13 | CC/C=C/c1cc2c(cc1O)CCC1C2CC[C@@]2(C)C1CC[C@@H]2O (stereo not given in full) | 0.524 µM (active) | 14 µM (inactive) | 2.76 µM (inactive) | 3.53 µM (inactive) | 14.7 µM (inactive) | 1.02 µM (active) | 12 µM (inactive) | 4.32 µM (inactive) | 1.17 µM (inactive) | 0.199 µM (active) | 1.97 µM (inactive) | 0.524 µM (active) | 1.47 µM (inactive) | 3.33 µM (inactive) | 0.82 µM (active) | 4.31 µM (inactive) | 0.34 µM (active) | 11.3 µM (inactive) | 2.6 µM (inactive) | 10.4 µM (inactive)
14 | COC(=O)c1ccccc1C1CN=NC12Cc1cc(C)c(C)cc1C2=O (stereo not given) | 61.2 µM (inactive) | 49.9 µM (inactive) | > 100 µM (inactive) | 42.1 µM (inactive) | 55.2 µM (inactive) | 33.4 µM (inactive) | 28 µM (inactive) | 29.7 µM (inactive) | 40.7 µM (inactive) | 33.7 µM (inactive) | 34.3 µM (inactive) | 52.4 µM (inactive) | > 100 µM (inactive) | 29.1 µM (inactive) | 44.1 µM (inactive) | 54.6 µM (inactive) | 37.5 µM (inactive) | 87.7 µM (inactive) | 54.8 µM (inactive) | 14.5 µM (inactive)
